These results are taken from patent publication US9296760B2, “Antibacterial compounds” (JANSSEN SCIENCES IRELAND UC, priority 2012, dated 2016).

SMILES strings stand for the structures. In brackets after ≈: the same amount, converted by molar mass.

In data set [1] the target is T1, S. aureus ATCC 29213 FabI (Staphylococcus aureus, UniProt Q6GI75).
T1 sequence (Q6GI75 1-256): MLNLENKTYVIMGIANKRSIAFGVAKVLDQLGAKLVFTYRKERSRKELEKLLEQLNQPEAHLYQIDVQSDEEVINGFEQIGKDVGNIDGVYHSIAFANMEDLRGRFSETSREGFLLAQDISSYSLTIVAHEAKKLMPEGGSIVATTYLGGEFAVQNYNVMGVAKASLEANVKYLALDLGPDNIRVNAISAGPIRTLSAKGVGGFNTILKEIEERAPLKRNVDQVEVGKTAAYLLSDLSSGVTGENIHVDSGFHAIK
The data set can be described thus: Staphylococcus aureus FabI enzyme inhibition assay. Particulars: NADH consumption, 30 minutes, read-out: FabI (300.235) IC50 (converted). In kind it is biochemical. The protocol: Y.1 FabI Enzyme Inhibition: Staphylococcus aureus FabI Enzyme Inhibition Assay
FabI enzyme inhibition assays were carried out in half-area, 384-well microtitre plates. […] The reaction mixtures were incubated for 30 minutes at room temperature and the reaction was stopped by adding 200 mM Tris buffer (pH 9.0) to create a pH-shift. The consumption of NADH was monitored by measuring the change in absorbance at […]. By comparing sample readings to those of negative (absence of compound) and positive (absence of enzyme) controls, the percent inhibition of enzymatic activity of the compounds was determined A best-fit curve is fitted by a minimum of squares method. From this an IC50-value (expressed in μg/ml), resulting in 50% inhibition of enzymatic activity, was obtained.

In data set [2] the test system is Staphylococcus aureus ATCC 29213. Description: Antibacterial susceptibility testing, IC90 determination (broth microdilution, resazurin). In kind it is cell-based. To be noted: Staphylococcus aureus, ATCC29213, S. aureus ATCC 29213; 90% inhibitory concentration for bacterial growth; read-out: STA (361.159) IC90. The protocol:
Y.2 In Vitro Method for Testing Compounds for Antibacterial Activity Against Various Bacterial Strains
Preparation of Bacterial Suspensions for Susceptibility Testing
The following bacteria were used: Staphylococcus aureus ATCC 29213, methicillin-resistant Staphylococcus aureus (MRSA) ATCC 700788 and Escherichia coli ATCC 35218. The bacteria used in this study were grown overnight in flasks containing 100 ml Mueller-Hinton broth (Difco cat. nr. 0757-17) in sterile de-ionized water, with shaking, at 37° C. Stocks were store at −70° C. until use.
Bacteria were incubated on a tryptic soy agar plate containing 5% sheep blood (Becton Dickinson cat. nr. 254053) for 18-24 hours at 35° C. in aerobic conditions (first passage). For the second passage, fresh Mueller-Hinton broth is inoculated with 5-10 colonies and grown overnight at 35° C. until turbidity (reaching log-phase) in aerobic conditions is reached. The bacterial suspension is then adjusted to 0.5 McFarland density and further diluted 1:100 in Mueller Hinton broth medium. This is used as inoculum.
The result(s) are depicted the table below (for STA ATCC 29213).
Antibacterial Susceptibility Testing: IC90 Determination
(§1) MIC assays were performed by the broth microdilution method in a 96-well format (flat-bottom microtitre plates) with a final volume of 0.1 ml Mueller Hinton broth containing two-fold serial dilutions of compounds and inoculated with 5×10^5 CFU/ml of bacteria (standard inoculum size according to CLSI guidelines). Inhibitors are typically varied over the range of 63 to 0.49 μM. The final DMSO concentration in the assay was 1.25% (maximum tolerable DMSO concentration=6%). In the assays where the effect of human serum on the activity of the compounds against S. aureus was tested, human serum was added at a final concentration of 10%. The plates were incubated at 35° C. for 16-20 hours. At the end of incubation the bacterial growth was quantified fluorometrically. For this, resazurin was added to all wells and the plates were re-incubated. The incubation time is dependent on the type of bacteria. A change in color from blue to pink indicated the growth of bacteria. The fluorescence was read in computer-controlled fluorometer (Fluoroskan Ascent FL, Labsystems) at an excitation wavelength 540 nm and an emission wavelength of 590 nm. The % growth inhibition achieved by the compounds was calculated according to standard methods. The IC90 (expressed in μg/ml) was defined as the 90% inhibitory concentration for bacterial growth. A panel of reference compounds were simultaneously tested for QC approval.
Background: Broth dilution looks for growth in wells or tubes with falling amounts of substance.

The test system of the next data set is S. aureus. Description: Antibacterial susceptibility testing, IC90 determination with 10% human serum. Particulars: Staphylococcus aureus, S. aureus with human serum at final concentration of 10%; read-out: STA + 10% HS (361.169) IC90. In kind it is cell-based, Staphylococcus aureus. Here is the method:
as §1, with “Antibacterial Susceptibility Testing: IC90 Determination MIC” for “MIC”, “approval. The results are depicted in the table(s) below (STA+10% HS).” for “approval.”

The next data set is described as follows: Cytotoxicity MTT assay. In kind it is cell-based, Human. To be noted: human, HelaM cells, read-out: HELAM (222.125) CC50. The protocol: Cytotoxicity of the compounds was evaluated using the MTT assay. Human HelaM cells grown in 96-well plates were exposed to serial dilutions of the tested compounds (final volume of 0.2 ml) and incubated for 72 hours at 37° C. and 5% CO2 Inhibitors are typically varied over the range of 25 to 0.8 μM. The final DMSO concentration in the assay is 0.5%. MTT (3-(4,5-Dimethylthiazol-2-yl)-2,5-diphenyltetrazolium bromide, a tetrazole) was added and reduced to purple formazan only in living cells. Solubilization of the formazan crystals was achieved by adding 100 μl 2-propanol. Cell viability was determined by measuring the absorbance of the reduced formazan, giving a purple color, at 540 nm and 690 nm. The absorbance measured at 690 nm was automatically subtracted from the absorbance at 540 nm, to eliminate the effects of non-specific absorption. The percent cytotoxicity achieved by the compounds was calculated according to standard methods. Cytotoxicity is reported as CC50, the concentration that causes a 50% reduction in cell viability.
The results are depicted in the table(s) below (HELAM).

The term IC50 denotes the concentration needed to halve the response being measured. As usually defined, the IC90 is the point of the concentration-response curve where the effect stands at 90%. As a reminder, the CC50 is the concentration at which the toxic effect on the cells reaches its halfway point. What is called melting point is the temperature of the solid-liquid transition. In the case of `Cc1occc1C(=O)Nc1ccc(/C=C/C(=O)N2CCC=C(c3ccccc3)CC2)cn1` [compound 8], the melting point was determined as 192 °C. Also, in data set [1], the IC50 was 2.13 µM. In addition, the IC90 in data set [2] came out at 0.84 mg/L (≈ 1.96 µM). Besides, the IC90 in the data set on S. aureus is 6.7 mg/L. In addition, the CC50 at 72 h in “Cytotoxicity MTT assay” was found to be 5.64 mg/L (≈ 13.2 µM).
For the molecule `O=C(Nc1ccc(/C=C/C(=O)N2CCC=C(c3ccccc3)CC2)cn1)c1ccccc1` [compound 9], the melting point stood at 158.31 °C. Moreover, the IC50 in data set [1] is 1.82 µM. Further, in data set [2], the 90% effect concentration (IC90) stood at 0.85 mg/L (≈ 2.01 µM). Besides, the IC90 in the data set with S. aureus amounted to 6.26 mg/L. The CC50 at 72 h in the data set “Cytotoxicity MTT assay” was found to be 4.24 mg/L (≈ 10 µM).
In turn, `Cn1nccc1C(=O)Nc1ccc(/C=C/C(=O)N2CCC=C(c3ccccc3)CC2)cn1` [compound 10] registered a melting point of 138 °C. In addition, the 50% inhibitory concentration (IC50) in data set [1] was 1.92 µM. Further, the IC90 in data set [2] turned out to be 0.92 mg/L (≈ 2.15 µM). Moreover, in the data set with S. aureus, the IC90 was found to be 2.07 mg/L. Moreover, the CC50 at 72 h in “Cytotoxicity MTT assay” stood at 5.44 mg/L (≈ 12.7 µM).
`O=C(Nc1ccc(/C=C/C(=O)N2CCC=C(c3ccccc3)CC2)cn1)c1c[nH]cn1` [compound 11] displayed a melting point of 120 °C. In addition, in data set [1], the IC50 was 1.62 µM. Also, in data set [2], the IC90 stood at 1.26 mg/L (≈ 3.05 µM). Also, the IC90 in the data set on S. aureus is 3.17 mg/L. The CC50 at 72 h in the data set “Cytotoxicity MTT assay” was more than 10.4 mg/L.
`CC(=O)Nc1ccc(/C=C/C(=O)N2CC=C(c3ccccc3)CCC2)cn1` [compound 12] registered a melting point of 188 °C. In addition, in data set [1], the IC50 was 0.609 µM. In data set [2], the IC90 turned out to be 1.3 mg/L (≈ 3.6 µM). Moreover, the IC90 in the data set with S. aureus was 1.9 mg/L. For the same molecule, the CC50 at 72 h in the data set “Cytotoxicity MTT assay” is more than 9.08 mg/L.
`O=C(Nc1ccc(/C=C/C(=O)N2CCC=C(c3ccccc3)CC2)cn1)c1ccncc1` [compound 13]: the melting point worked out at 98 °C. Further, the IC50 in data set [1] is 1.25 µM. Moreover, in data set [2], the IC90 came out at 1.41 mg/L (≈ 3.32 µM). Moreover, in the data set with S. aureus, the IC90 was determined as 3.08 mg/L. Also, in the data set “Cytotoxicity MTT assay”, the CC50 at 72 h was determined as 4.29 mg/L (≈ 10.1 µM).
In turn, `O=C(/C=C/c1ccc(Nc2ccccc2)nc1)N1CCC=C(c2ccccc2)CC1` [compound 14] showed a melting point of 150 °C. Moreover, the IC50 in data set [1] was 2.25 µM. For the same molecule, the IC90 in data set [2] turned out to be 1.45 mg/L (≈ 3.67 µM). For the same molecule, the IC90 in the data set on S. aureus came to 24.1 mg/L. Also, the CC50 at 72 h in “Cytotoxicity MTT assay” is 6.27 mg/L (≈ 15.9 µM).
For `Cc1cc(C(=O)Nc2ccc(/C=C/C(=O)N3CCC=C(c4ccccc4)CC3)cn2)no1` [compound 16], the melting point was determined as 169.37 °C. In data set [1], the IC50 was 1.54 µM. For the same molecule, the IC90 in data set [2] was determined as 3.29 mg/L (≈ 7.68 µM). Also, in the data set on S. aureus, the IC90 came out at 6.71 mg/L. Moreover, the CC50 at 72 h in the data set “Cytotoxicity MTT assay” stood at 7.89 mg/L (≈ 18.4 µM).
On the same counts, the results for `Cn1cnc(C(=O)Nc2ccc(/C=C/C(=O)N3CCC=C(c4ccccc4)CC3)cn2)c1` [compound 17] are 134 °C, 2.41 µM, 4.29 mg/L (≈ 10 µM), 8.56 mg/L and 13.9 mg/L (≈ 32.5 µM).
In turn, `O=C(Nc1ccc(/C=C/C(=O)N2CCC=C(c3ccccc3)CC2)cn1)C1CCCC1` [compound 18] registered a melting point of 141 °C. The IC50 in data set [1] was 2.05 µM. In addition, in data set [2], the IC90 worked out at 6.29 mg/L (≈ 15.1 µM). Further, the IC90 with S. aureus was more than 26.2 mg/L. Besides, the CC50 at 72 h in “Cytotoxicity MTT assay” was determined as 2.62 mg/L (≈ 6.31 µM).
On the same counts, the results for `CC(C)C(=O)Nc1ccc(/C=C/C(=O)N2CCC=C(c3ccccc3)CC2)cn1` [compound 19] are 158 °C, 1.28 µM, 6.32 mg/L (≈ 16.2 µM), 20.9 mg/L and 8.52 mg/L (≈ 21.9 µM).
On the same counts, the results for `O=C(Nc1ccc(/C=C/C(=O)N2CCC=C(c3ccccc3)CC2)cn1)C1CCOC1` (centres unmarked) [compound 20] are 152 °C, 0.934 µM, 6.69 mg/L (≈ 16 µM), 11.8 mg/L and 10 mg/L (≈ 24 µM).
`Nc1ccc(/C=C/C(=O)N2CC=C(c3ccccc3)CCC2)cn1` [compound 21] yielded a melting point of 184 °C. The IC50 in data set [1] was 3.88 µM. Also, the IC90 in data set [2] was found to be 6.75 mg/L (≈ 21.1 µM). For the same molecule, in the data set on S. aureus, the IC90 is 12.9 mg/L. Further, the CC50 at 72 h in the data set “Cytotoxicity MTT assay” was 4.78 mg/L (≈ 15 µM).
